The source made the active and inactive calls.
Legend:
Estrogen receptor = molecular target: T1, Estrogen receptor (Homo sapiens, UniProt P03372); test: blockers of SRC-3 recruitment to ERα – biochemical, ELISA, streptavidin-HRP readout, orthogonal assay, confirmation (AID 1079)
T1 sequence (P03372 whole entry): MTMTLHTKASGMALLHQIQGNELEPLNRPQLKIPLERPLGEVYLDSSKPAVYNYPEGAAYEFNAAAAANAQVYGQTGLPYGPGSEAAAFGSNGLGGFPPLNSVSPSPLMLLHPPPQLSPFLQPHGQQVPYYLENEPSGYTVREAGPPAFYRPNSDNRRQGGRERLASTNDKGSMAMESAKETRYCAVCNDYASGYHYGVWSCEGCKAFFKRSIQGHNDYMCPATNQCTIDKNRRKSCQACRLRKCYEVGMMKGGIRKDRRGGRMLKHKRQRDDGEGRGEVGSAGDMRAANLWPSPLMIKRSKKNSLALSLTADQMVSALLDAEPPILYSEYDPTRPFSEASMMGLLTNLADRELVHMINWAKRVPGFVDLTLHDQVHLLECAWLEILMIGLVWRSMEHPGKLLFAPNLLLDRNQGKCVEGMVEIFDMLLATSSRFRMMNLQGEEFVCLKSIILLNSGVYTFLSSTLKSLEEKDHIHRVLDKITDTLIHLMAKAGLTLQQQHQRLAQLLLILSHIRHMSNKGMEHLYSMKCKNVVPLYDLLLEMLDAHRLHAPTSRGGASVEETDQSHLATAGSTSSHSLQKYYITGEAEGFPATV

[1] = Trypanosoma cruzi growth suppression in host cells – NIH3T3 host cells, beta-gal luminescence, confirmation (AID 2044); format: functional, cell-based;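 note: intracellular parasites grown in NIH/3T3 mouse fibroblasts as host cells; luminescent beta-galactosidase reporter signal from transgenic T. cruzi replicating inside host cells; inhibitors lower the luminescence signal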
HEK293 [2] = test: cells; details: Homo sapiens
[3] = reduction of Shn3 3'UTR-driven luciferase in osteoblasts – cell-based, Clone20 osteoblasts, firefly luciferase, cherry-picked, dose response (AID 624132); format: functional;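 note: firefly luciferase luminescence from reporter carrying the Shn3 3'UTR in osteoblasts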
[4] = molecular target: T2, Microphthalmia-associated transcription factor (Homo sapiens, UniProt O75030); test: reducers of TRPM1 reporter luminescence, concentration series – cell-based, SK-MEL-5, cherry-picked, set 3, MITF inhibitor project, dose response (AID 493073); format: functional;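 note: SK-MEL-5 melanoma cells with luciferase driven by the MITF target TRPM1 promoter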
T2 sequence (O75030 whole entry): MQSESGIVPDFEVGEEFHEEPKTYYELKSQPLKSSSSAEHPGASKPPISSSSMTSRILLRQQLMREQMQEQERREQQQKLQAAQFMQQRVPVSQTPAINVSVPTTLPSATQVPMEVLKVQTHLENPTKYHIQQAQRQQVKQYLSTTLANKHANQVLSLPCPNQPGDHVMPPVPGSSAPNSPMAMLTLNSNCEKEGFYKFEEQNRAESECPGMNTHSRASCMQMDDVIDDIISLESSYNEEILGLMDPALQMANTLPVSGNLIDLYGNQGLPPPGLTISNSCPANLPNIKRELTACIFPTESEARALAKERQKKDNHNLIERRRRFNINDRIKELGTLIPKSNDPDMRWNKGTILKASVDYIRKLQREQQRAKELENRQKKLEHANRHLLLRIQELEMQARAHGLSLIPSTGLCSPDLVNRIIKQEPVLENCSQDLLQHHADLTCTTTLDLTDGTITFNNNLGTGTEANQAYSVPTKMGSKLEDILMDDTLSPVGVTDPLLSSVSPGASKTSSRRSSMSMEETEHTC

HEK293 [5] = test: cells; details: Homo sapiens; remark: listed apart in the source
[6] = non-specific 3'UTR reporter inhibition in Clone20-Shn3RL – cell-based, Renilla luciferase, cherry-picked, counter-screen for Shn3 inhibitor project, dose response (AID 624133); format: functional
[7] = loss of viability in HepG2 cells – cell-based, CellTiter-Glo, cherry-picked, cytotoxicity control for Shn3 inhibitor project, dose response (AID 624134); format: functional
HeLa = test: Cytotoxicity counterscreen assay for transcriptional activators of heat shock protein 70 (Hsp70). [Related pubchem assays: 1203, 1252 ]; format: functional; details: Homo sapiens;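 note: cells exposed to compound for 16 hours before readout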
[8] = NIH3T3 cell viability loss – ATP luminescence, mouse fibroblasts, counter-screen, dose response (AID 2010); format: functional, cell-based;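 note: cells exposed to compound for about 90 hours before reading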
INS1 = test: INS-1E survival protection against cytokine death – cell-based, luminescence, retest, dose response (AID 449756); format: functional; details: Rattus norvegicus, INS1;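 note: cell death triggered by IL-1 beta plus TNF-alpha plus IFN-gamma mixture; protective hits raise ATP signal compared with cytokine alone wells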
[9] = Luminescence Cell-Based Dose Confirmation HTS to Identify Activators of 5'UTR Stem-Loop Driven Alpha-Synuclein mRNA Translation in H4 Neuroglioblastoma Cells. [Related pubchem assays: 1829 (Project Summary), 1814 (Primary HTS)]; format: functional
Streptokinase A = molecular target: T3, Streptokinase A (Streptococcus pyogenes serotype M1, UniProt P10520); test: viability-normalized secreted streptokinase activity reduction – plasminogen activation absorbance, OD405, dose response (AID 1914); format: functional, Streptococcus pyogenes M1 GAS;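 note: secreted streptokinase activity via plasminogen activation per viability signal from cell pellet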
T3 sequence (P10520 whole entry): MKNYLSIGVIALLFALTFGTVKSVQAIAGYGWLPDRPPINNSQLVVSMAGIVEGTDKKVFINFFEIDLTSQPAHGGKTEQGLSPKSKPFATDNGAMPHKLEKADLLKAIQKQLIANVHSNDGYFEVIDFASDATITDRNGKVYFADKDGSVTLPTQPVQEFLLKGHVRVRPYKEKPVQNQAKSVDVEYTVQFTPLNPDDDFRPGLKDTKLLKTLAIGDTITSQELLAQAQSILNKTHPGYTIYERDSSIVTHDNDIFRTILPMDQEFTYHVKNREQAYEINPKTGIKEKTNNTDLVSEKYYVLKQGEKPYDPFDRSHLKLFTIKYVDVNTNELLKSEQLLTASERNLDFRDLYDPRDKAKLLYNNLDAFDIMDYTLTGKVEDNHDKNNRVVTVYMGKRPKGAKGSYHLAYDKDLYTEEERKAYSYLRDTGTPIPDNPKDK

[10] = Luminescence Cell-Based Dose Response to Identify Activators of Luciferase Translation or Activity in H4-C Neuroglioblastoma Cells. [Related pubchem assays: 1829 (Project Summary), 1814 (Primary HTS)]; format: functional
[11] = Luminescence Cell-Based Dose Confirmation to Identify Activators of 5'UTR Stem-Loop Driven Alpha-Synuclein mRNA Translation in H4 Neuroglioblastoma Cells. [Related pubchem assays: 1829 (Project Summary), 1814 (Primary HTS)]; format: functional
H4 = test: Luminescence Cell-Based Dose Response HTS to Identify Activators of 5'UTR Stem-Loop Driven Prion Protein mRNA Translation in H4 Neuroglioblastoma Cells. [Related pubchem assays: 1829 (Project Summary), 1814 (Primary HTS)]; format: functional; details: Homo sapiens
NS3 = NS3 (Hepatitis C virus, UniProt A3EZJ3); test: PubChem AID 2173; set-up: species or system Hepacivirus hominis
[12] = system: Streptococcus sp. 'group A'; test: Streptococcus pyogenes SK(-)GAS viability under kanamycin – luminescence, BacTiterGlo, confirmation, counter-screen for streptokinase expression inhibitor project, dose response (AID 1900); format: functional, organism-based
[13] = Luminescence Cell-Based Dose Response HTS to Identify Activators of Luciferase Translation or Activity in H4 […] Cells. [Related pubchem assays: 1829 (Project Summary), 1814 (Primary HTS)]; format: functional
[14] = Luminescence Cell-Based Dose Response to Identify Activators of 5'UTR Stem-Loop Driven Prion Protein mRNA Translation in H4-C Neuroglioblastoma Cells. [Related pubchem assays: 1829 (Project Summary), 1814 (Primary HTS)]; format: functional
Streptococcus = test: GAS UMAA2166 growth inhibition – luminescence, BacTiterGlo, counter-screen for streptokinase expression inhibitor project, dose response (AID 1915); format: functional, organism-based;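 note: potency for reduction of bacterial viability or growth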
[15] = molecular target: T4, Zinc finger protein mex-5 (Caenorhabditis elegans, UniProt Q9XUB2); test: potency of MEX-5 RNA-binding blockers – biochemical, C. elegans, fluorescence polarization, dose response (AID 1960)
T4 sequence (Q9XUB2 whole entry): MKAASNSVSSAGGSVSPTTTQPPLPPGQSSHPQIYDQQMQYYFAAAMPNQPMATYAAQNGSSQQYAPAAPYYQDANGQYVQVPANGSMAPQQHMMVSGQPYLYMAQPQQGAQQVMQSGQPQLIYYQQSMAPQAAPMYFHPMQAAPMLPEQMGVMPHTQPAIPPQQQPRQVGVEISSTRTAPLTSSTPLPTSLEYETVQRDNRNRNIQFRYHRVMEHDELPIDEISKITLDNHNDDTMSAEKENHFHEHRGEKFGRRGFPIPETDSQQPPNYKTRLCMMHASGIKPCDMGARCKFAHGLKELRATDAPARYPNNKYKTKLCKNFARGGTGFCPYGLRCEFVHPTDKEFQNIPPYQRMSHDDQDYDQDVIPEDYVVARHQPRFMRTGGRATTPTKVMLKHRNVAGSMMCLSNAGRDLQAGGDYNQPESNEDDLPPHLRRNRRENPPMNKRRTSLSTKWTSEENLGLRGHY

[16] = antiviral protection against BTV-induced cell death – arbovirus, BSR cells, confirmation (AID 1250); format: functional;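 note: protection from viral cytopathic effect measured as cell viability by ATP luminescence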
[17] = molecular target: T5, RNA-binding protein pos-1 (Caenorhabditis elegans, UniProt G5EF15); test: disruptors of C. elegans POS-1 RNA interaction – biochemical, fluorescence polarization, dose response (AID 1964);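 note: purified POS-1 fused to maltose binding protein made in E. coli; potency of compounds blocking POS-1 binding to fluorescent RNA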
T5 sequence (G5EF15 whole entry): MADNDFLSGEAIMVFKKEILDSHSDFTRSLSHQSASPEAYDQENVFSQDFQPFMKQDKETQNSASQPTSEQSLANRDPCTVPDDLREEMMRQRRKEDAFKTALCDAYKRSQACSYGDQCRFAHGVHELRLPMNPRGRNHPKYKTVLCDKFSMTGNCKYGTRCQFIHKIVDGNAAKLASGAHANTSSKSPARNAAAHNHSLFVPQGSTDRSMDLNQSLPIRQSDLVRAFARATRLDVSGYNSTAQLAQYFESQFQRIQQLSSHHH

[18] = molecular target: Heat shock protein HSP 90-alpha (Homo sapiens, UniProt P07900); format: functional, organism-based
[19] = molecular target: T6, Bifunctional protein GlmU (Mycobacterium tuberculosis, UniProt P9WMN3); test: Inhibitors of Mycobacterial Glucosamine-1-phosphate acetyl transferase (GlmU). Secondary screen.; set-up: species or system Mycobacterium tuberculosis H37Rv
T6 sequence (P9WMN3 whole entry): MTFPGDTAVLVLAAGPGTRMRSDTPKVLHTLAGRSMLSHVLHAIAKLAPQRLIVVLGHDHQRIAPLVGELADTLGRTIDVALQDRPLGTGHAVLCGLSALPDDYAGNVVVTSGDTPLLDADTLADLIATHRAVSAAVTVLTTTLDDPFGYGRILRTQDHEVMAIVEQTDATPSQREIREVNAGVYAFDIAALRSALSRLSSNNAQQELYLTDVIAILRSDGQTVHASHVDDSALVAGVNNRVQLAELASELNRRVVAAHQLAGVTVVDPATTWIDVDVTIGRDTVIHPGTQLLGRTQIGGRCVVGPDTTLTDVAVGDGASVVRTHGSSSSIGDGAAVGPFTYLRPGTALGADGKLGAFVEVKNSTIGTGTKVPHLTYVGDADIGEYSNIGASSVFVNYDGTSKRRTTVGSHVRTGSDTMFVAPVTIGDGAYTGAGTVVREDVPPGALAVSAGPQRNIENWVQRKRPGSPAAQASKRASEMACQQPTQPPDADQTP

[20] = molecular target: T7, Small ubiquitin-related modifier 1 (Homo sapiens, UniProt P63165); test: SUMO1 protein interaction blockers, potency – biochemical, fluorescence polarization, uHTS hits, dose response (AID 624382); format: functional; details: read-out: IC50_Mean
[21] = molecular target: Induced myeloid leukemia cell differentiation protein Mcl-1 (Homo sapiens, UniProt Q07820); format: functional
[22] = Counterscreen for IDE inhibitors: Luminescence-based cell-based high throughput dose response assay to identify compounds that are cytotoxic to HEK cells. [Related pubchem assays: 434962 (Primary screen (IDE inhibitors in singlicate)), 449730 (Counterscreen (Cytotoxicity in triplicate)), 435028 (Confirmation (IDE inhibitors in triplicate)) …; format: functional; details: HEK293
Genome polyprotein = Genome polyprotein (Hepatitis C virus, UniProt Q2Q167); test: disruption of hepatitis C core self-association – biochemical, TR-FRET, dose response (AID 2159); set-up: species or system Hepacivirus hominis;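 note: blocks dimerization of HCV core protein measured by TR-FRET between tagged core106 pairs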
Insulin-degrading enzyme = Insulin-degrading enzyme (Homo sapiens, UniProt P14735); test: Dose Response: Fluorescence polarization-based cell-based high throughput dose response assay for inhibitors of insulin-degrading enzyme (IDE). [Related pubchem assays: 434962 (Primary screen (IDE inhibitors in singlicate)), 449730 (Counterscreen (Cytotoxicity in triplicate)), 435028 (Confirmation (IDE inhibitors in triplicate)), 434984 (Summary …; format: functional
[23] = molecular target: T7, Small ubiquitin-related modifier 1; test: SUMO1 protein-protein binding blockers, potency – biochemical, FRET, dose response (AID 624383); format: functional; details: read-out: IC50_Mean

T7 sequence (P63165 whole entry): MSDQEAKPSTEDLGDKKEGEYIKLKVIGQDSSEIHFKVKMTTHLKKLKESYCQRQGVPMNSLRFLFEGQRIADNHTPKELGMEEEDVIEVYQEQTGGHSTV
Sequence of Genome polyprotein (Q2Q167 whole entry): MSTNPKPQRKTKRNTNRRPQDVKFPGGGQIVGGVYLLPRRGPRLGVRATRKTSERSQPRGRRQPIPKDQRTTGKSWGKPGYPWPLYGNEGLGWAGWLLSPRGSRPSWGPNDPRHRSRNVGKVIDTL
Sequence of Insulin-degrading enzyme (P14735 whole entry): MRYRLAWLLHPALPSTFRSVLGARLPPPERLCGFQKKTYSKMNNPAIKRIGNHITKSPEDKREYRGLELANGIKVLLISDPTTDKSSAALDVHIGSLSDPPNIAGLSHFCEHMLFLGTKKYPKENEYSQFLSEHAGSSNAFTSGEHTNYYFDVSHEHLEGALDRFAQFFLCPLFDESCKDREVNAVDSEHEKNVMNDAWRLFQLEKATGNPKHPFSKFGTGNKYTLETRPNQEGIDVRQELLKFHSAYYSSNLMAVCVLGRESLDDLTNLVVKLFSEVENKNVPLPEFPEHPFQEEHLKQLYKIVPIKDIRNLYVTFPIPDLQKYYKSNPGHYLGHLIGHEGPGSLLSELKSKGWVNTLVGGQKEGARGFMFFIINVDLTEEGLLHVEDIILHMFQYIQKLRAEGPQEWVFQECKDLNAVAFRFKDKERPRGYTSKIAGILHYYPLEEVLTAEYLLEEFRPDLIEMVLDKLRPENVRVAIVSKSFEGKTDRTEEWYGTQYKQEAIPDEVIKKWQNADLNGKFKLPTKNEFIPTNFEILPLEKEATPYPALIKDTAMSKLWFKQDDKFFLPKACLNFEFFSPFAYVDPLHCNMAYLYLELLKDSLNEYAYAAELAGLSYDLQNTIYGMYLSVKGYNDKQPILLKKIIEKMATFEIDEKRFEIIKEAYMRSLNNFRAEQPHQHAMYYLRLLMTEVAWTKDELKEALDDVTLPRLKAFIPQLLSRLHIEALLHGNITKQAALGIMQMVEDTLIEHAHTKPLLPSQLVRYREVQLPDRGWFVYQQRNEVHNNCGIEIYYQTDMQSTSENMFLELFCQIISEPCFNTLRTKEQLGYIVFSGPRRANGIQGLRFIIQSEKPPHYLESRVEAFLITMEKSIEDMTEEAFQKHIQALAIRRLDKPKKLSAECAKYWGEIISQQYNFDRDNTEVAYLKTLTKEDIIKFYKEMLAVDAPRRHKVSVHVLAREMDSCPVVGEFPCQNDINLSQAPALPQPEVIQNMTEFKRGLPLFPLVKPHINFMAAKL
Sequence of Induced myeloid leukemia cell differentiation protein Mcl-1 (Q07820 whole entry): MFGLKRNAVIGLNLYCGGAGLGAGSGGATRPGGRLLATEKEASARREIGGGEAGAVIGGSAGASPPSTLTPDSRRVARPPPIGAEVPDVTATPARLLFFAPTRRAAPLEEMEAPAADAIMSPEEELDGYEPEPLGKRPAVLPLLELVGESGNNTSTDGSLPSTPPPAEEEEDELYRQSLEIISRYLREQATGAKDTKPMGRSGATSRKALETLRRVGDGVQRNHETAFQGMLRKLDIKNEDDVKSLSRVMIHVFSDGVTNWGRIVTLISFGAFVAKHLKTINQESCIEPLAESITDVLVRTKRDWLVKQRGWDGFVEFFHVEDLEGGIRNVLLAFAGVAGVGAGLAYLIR
Sequence of NS3 (A3EZJ3 whole entry): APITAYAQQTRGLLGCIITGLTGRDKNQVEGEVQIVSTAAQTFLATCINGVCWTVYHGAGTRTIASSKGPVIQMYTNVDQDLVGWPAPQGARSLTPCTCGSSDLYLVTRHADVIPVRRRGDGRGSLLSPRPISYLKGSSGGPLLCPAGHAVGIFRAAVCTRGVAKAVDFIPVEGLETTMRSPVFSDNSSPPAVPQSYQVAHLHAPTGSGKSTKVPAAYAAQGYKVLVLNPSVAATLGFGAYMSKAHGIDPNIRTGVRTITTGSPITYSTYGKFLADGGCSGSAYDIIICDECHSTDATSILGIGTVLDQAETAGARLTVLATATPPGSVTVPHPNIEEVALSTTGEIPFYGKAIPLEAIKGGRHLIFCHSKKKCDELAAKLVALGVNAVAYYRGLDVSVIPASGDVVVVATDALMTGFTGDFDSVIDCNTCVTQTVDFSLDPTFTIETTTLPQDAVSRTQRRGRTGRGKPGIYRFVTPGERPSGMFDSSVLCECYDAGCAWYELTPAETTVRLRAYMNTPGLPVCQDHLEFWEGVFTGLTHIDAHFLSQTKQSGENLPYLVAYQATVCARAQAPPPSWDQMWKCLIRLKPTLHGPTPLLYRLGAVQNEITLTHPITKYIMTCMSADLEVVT

O=C(CCCCCn1c(=S)[nH]c2ccccc2c1=O)N1CCN(c2ccncc2)CC1
IC50 (Estrogen receptor): 0.03 µM (not active)

CCCC(=O)N1CCN(c2ccc(NC(=O)c3ccc([N+](=O)[O-])o3)cc2Cl)CC1
EC50 [1]: 2.36 µM (active) | EC50 (HEK293 [2]): > 59.6 µM (inactive) | AC50 [3]: 0.7 µM (active) | AC50 [4]: 7.65 µM (active) | EC50 (HEK293 [5]): > 59.6 µM (inactive) | AC50 [6]: 8.17 µM (active) | AC50 [7]: 36.6 µM (active) | CC50 (HeLa): 4.19 µM (active) | EC50 [8]: 2.96 µM (active)

NC(=S)N/N=C/c1ccc(C23CC4CC(CC(C4)C2)C3)cc1
EC50 [1]: 0.387 µM (active) | AC50 (INS1): 5.3 µM (active) | EC50 [9]: < 0.1 µM (active) | EC50 (Streptokinase A): 13.4 µM (active) | EC50 [10]: 0.415 µM (active) | EC50 [11]: 0.324 µM (active) | EC50 (H4): 96.8 µM (active) | IC50 (NS3): 5.41 µM (active) | EC50 [12]: 2.4 µM (active) | EC50 [13]: < 0.1 µM (active) | EC50 [14]: 1.31 µM (active) | EC50 [8]: 7.3 µM (active) | EC50 (Streptococcus): > 50 µM (not active)

Cc1cc(/C=c2\sc3nc4ccccc4n3c2=O)c(C)n1-c1ccc(C(=O)O)cc1
EC50 [15]: > 300 µM (not active) | IC50 [16]: 25.8 µM (active) | EC50 [17]: > 300 µM (not active) | AC50 [18]: 24.5 µM (active) | IC50 [19]: 171 µM (active)

COc1cccc(/C=N/Nc2[nH]cnc3c4cc(C)ccc4nc2-3)c1OC
IC50 [20]: > 66.6 µM (inactive) | IC50 [21]: 3.73 µM (active) | IC50 [22]: 24.9 µM (not active) | IC50 (Genome polyprotein): > 49.8 µM (not active) | IC50 (Insulin-degrading enzyme): 0.571 µM (active) | IC50 [23]: 2.38 µM (active)

Reference: ChEMBL document CHEMBL1201862, “PubChem BioAssay data set” (2004)
